Measured values reported in paper PMC8848508 (ACS Central Science, 2022).
“Also recorded” adds a separate entry of the source. Where a SMILES comes first, the peptide text is derived from it. The star is where a group is joined. Cbz = O=C(OCc1ccccc1)*

These compounds were tested against SARS-CoV-2 M^Pro (Severe acute respiratory syndrome coronavirus 2, UniProt P0DTD1, Q3569G).
Assay type: cell-based

Structure (SMILES) | cellular inhibition of M^Pro (in words)
CC(C)C[C@@H](C=O)NC(=O)[C@H](CC(C)C)NC(=O)[C@H](CC(C)C)NC(=O)OCc1ccccc1 [MG-132] (Cbz-Leu-Leu-Leu-aldehyde) | close to undetectable
CC(C)COCC(CN(Cc1ccccc1)c1ccccc1)N1CCCC1 (stereo not drawn) [bepridil] | relatively weak to undetectable; also recorded: very weak inhibition; also recorded: close to undetectable
CC(C)(C)NC(=O)N[C@H](C(=O)N1C[C@H]2[C@@H]([C@H]1C(=O)NC(CC1CCC1)C(=O)C(N)=O)C2(C)C)C(C)(C)C (stereo partly drawn) [boceprevir] | close to undetectable; also recorded: very weak
CCCC[C@@H](C=O)NC(=O)[C@H](CC(C)C)NC(=O)OCc1ccccc1 [calpeptin] | close to undetectable
CCCCCCNC(=O)n1cc(F)c(=O)[nH]c1=O [carmofur] | undetectable
CCN(CC)CCCC(C)Nc1ccnc2cc(Cl)ccc12 (stereo not drawn) [chloroquine] | relatively weak to undetectable; also recorded: close to undetectable
O=c1c2ccccc2[se]n1-c1ccccc1 [ebselen] | relatively weak to undetectable
CCN(CCO)CCCC(C)Nc1ccnc2cc(Cl)ccc12 (stereo not drawn) [hydroxychloroquine] | relatively weak to undetectable; also recorded: close to undetectable
CCC[C@H](NC(=O)[C@@H]1[C@H]2CCC[C@H]2CN1C(=O)[C@@H](NC(=O)[C@@H](NC(=O)c1cnccn1)C1CCCCC1)C(C)(C)C)C(=O)C(=O)NC1CC1 [telaprevir] | close to undetectable
